The record followed here is ChEMBL document CHEMBL1926526, “Mefloquine-oxazolidine derivatives, derived from mefloquine and arenecarbaldehydes: In vitro activity including against the multidrug-resistant tuberculosis strain T113” (Bioorg Med Chem, 2012).

This assay deals with Mycobacterium tuberculosis. In words: Antimycobacterial activity against multiple drug-resistant Mycobacterium tuberculosis isolate T113 by alamar blue assay. Type of assay: functional.

Converted amounts (≈) assume the structure as drawn. The source made the active and inactive calls. No cut-off for these calls is given here.

One may read the MIC as the least concentration at which growth counts as inhibited.

As for `FC(F)(F)c1cc([C@@H]2OC(c3ccc(Cl)c(Cl)c3)N3CCCC[C@H]23)c2cccc(C(F)(F)F)c2n1` (mixture of isomers), the outcome was inactive.

For `FC(F)(F)c1cc([C@@H]2OC(c3ccc(Cl)cc3Cl)N3CCCC[C@H]23)c2cccc(C(F)(F)F)c2n1` (mixture of isomers), the result was inactive.

In turn, `FC(F)(F)c1cc([C@@H]2OC(c3ncc[nH]3)N3CCCC[C@H]23)c2cccc(C(F)(F)F)c2n1` (mixture of isomers) registered a minimal inhibitory concentration (MIC) of 27.4 µM.

`OC(c1cc(C(F)(F)F)nc2c(C(F)(F)F)cccc12)C1CCCCN1` (centres undefined) [MEFLOQUINE] had an MIC of 33 µM (≈ 12.5 µg/mL).

`FC(F)(F)c1cc([C@@H]2OC(c3cccc(Cl)c3Cl)N3CCCC[C@H]23)c2cccc(C(F)(F)F)c2n1` (mixture of isomers): the outcome was inactive.

In turn, `Oc1ccc(C2O[C@@H](c3cc(C(F)(F)F)nc4c(C(F)(F)F)cccc34)[C@H]3CCCCN23)cc1` (mixture of isomers) gave a minimum inhibitory concentration (MIC) of 25.9 µM.

Regarding `FC(F)(F)c1cc([C@@H]2OC(c3c(Cl)cccc3Cl)N3CCCC[C@H]23)c2cccc(C(F)(F)F)c2n1` (mixture of isomers), the result was inactive.

The compound `COc1cccc(C2O[C@@H](c3cc(C(F)(F)F)nc4c(C(F)(F)F)cccc34)[C@H]3CCCCN23)c1` (mixture of isomers) displayed a minimal inhibitory concentration (MIC) of 25.2 µM.

Regarding `FC(F)(F)c1cc([C@@H]2OC(c3ccccc3)N3CCCC[C@H]23)c2cccc(C(F)(F)F)c2n1` (mixture of isomers), 26.8 µM was the least that counted as inhibitory (MIC).

Turning to `O=[N+]([O-])c1ccc(C2O[C@@H](c3cc(C(F)(F)F)nc4c(C(F)(F)F)cccc34)[C@H]3CCCCN23)s1` (mixture of isomers), it took 12.1 µM to inhibit growth (MIC).

In turn, `COc1cccc(C2O[C@@H](c3cc(C(F)(F)F)nc4c(C(F)(F)F)cccc34)[C@H]3CCCCN23)c1OC` (mixture of isomers) had a minimum inhibitory concentration (MIC) of 11.9 µM.

For the compound `Oc1ccccc1C1O[C@@H](c2cc(C(F)(F)F)nc3c(C(F)(F)F)cccc23)[C@H]2CCCCN12` (mixture of isomers), the MIC turned out to be 25.9 µM.

`COc1ccccc1C1O[C@@H](c2cc(C(F)(F)F)nc3c(C(F)(F)F)cccc23)[C@H]2CCCCN12` (mixture of isomers) gave a minimum inhibitory concentration (MIC) of 12.6 µM.

Turning to `CC[C@@H](CO)NCCN[C@@H](CC)CO` [ETHAMBUTOL], the MIC turned out to be 61.2 µM (≈ 12.5 µg/mL).

In turn, `COc1cc(C2O[C@@H](c3cc(C(F)(F)F)nc4c(C(F)(F)F)cccc34)[C@H]3CCCCN23)cc(OC)c1OC` (mixture of isomers) showed a minimal inhibitory concentration (MIC) of 22.5 µM.

`COc1ccc(C2O[C@@H](c3cc(C(F)(F)F)nc4c(C(F)(F)F)cccc34)[C@H]3CCCCN23)cc1` (mixture of isomers) returned an MIC of 25.2 µM.

In turn, `O=[N+]([O-])c1ccc(C2O[C@@H](c3cc(C(F)(F)F)nc4c(C(F)(F)F)cccc34)[C@H]3CCCCN23)o1` (mixture of isomers) gave an MIC of 99.8 µM.

Compound `CCOc1cccc(C2O[C@@H](c3cc(C(F)(F)F)nc4c(C(F)(F)F)cccc34)[C@H]3CCCCN23)c1` (mixture of isomers) returned an MIC of 24.5 µM.

For `Fc1ccc(C2O[C@@H](c3cc(C(F)(F)F)nc4c(C(F)(F)F)cccc34)[C@H]3CCCCN23)cc1` (mixture of isomers), the MIC is 25.8 µM.
